Measured values: patent publication US20250304576A1 (Cancer Research Technology Limited, priority 2022, published 2025)

How the values were obtained:
[1] = molecular target: T1, Recombinant IKKα (Homo sapiens, UniProt O15111); test: DELFIA IKKα kinase assay (apparent Ki, Cheng-Prusoff); format: biochemical
T1 construct: purchased Millipore, Dundee, UK
T1 sequence (O15111 1-745): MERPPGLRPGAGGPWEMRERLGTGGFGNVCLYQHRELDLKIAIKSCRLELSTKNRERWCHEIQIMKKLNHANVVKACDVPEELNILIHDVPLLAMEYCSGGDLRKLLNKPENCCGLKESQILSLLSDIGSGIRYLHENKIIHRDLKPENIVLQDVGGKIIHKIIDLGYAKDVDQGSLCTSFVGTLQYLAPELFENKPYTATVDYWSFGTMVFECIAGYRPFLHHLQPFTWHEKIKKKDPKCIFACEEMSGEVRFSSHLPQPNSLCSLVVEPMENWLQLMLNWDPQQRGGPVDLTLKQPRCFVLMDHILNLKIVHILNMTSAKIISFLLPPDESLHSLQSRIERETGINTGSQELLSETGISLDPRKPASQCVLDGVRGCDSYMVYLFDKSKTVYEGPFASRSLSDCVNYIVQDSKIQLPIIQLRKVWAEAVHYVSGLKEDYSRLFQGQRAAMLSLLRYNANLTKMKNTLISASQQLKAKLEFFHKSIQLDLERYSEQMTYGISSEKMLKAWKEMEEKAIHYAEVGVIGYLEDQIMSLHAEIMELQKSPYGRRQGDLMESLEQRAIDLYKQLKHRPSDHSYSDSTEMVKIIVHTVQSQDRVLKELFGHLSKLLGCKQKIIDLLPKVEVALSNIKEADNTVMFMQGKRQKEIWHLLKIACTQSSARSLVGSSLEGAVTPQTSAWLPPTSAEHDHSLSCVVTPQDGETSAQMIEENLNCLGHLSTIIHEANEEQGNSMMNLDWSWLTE
In short: (§1)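 DELFIA time-resolved fluorescence (ex 340/em 615 nm) quantified phosphorylation of a biotinylated IκB-α Ser32 peptide (0.375 μM) by 37 nM recombinant IKKα or IKKβ. Reactions used 40 μM ATP, Tris pH 7.5 buffer with MgCl2, DTT and BSA, 60 min at 30° C. Cheng-Prusoff equation gave apparent Ki.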

[2] = molecular target: T2, Recombinant IKKβ (Homo sapiens, UniProt O14920); test: DELFIA IKKβ kinase assay (apparent Ki, Cheng-Prusoff); format: biochemical
T2 construct: purchased Millipore, Dundee, UK
T2 sequence (O14920 1-756): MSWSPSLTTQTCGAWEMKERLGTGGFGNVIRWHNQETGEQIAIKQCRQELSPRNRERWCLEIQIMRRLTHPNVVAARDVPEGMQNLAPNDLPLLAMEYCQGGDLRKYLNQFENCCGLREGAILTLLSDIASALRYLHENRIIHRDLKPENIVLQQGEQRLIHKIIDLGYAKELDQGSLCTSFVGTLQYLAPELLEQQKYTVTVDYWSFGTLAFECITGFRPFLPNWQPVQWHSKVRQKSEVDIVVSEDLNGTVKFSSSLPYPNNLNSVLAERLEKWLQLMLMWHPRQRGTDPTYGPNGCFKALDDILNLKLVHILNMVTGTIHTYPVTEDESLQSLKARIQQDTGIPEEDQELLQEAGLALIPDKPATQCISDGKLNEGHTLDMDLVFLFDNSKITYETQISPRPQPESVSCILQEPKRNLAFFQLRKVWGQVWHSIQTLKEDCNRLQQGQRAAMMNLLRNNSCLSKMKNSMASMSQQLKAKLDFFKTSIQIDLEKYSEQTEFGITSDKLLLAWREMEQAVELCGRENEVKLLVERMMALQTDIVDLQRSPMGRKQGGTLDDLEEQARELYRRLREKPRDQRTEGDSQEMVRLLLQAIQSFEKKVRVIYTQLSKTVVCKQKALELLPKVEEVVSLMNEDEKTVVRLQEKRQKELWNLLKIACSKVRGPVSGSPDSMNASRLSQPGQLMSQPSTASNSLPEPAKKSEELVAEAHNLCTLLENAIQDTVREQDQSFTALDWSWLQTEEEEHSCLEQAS
In short: as §1

[3] = DELFIA assay (first line of an example)
[4] = non-italicised figure: DELFIA assay

Row | Ki [1, 3] [nM] | Ki [2, 3] [µM] | Ki [1, 4] [nM] | Ki [2, 4] [µM] | SMILES
1 | > 10000 | > 10 |  |  | CC(C)(C)C#Cc1cc(-c2cc(N)ncc2C#N)cc2c(N)n[nH]c12 [Example 336, 6-Amino-4-(3-amino-7-(3,3-dimethylbut-1-yn-1-yl)-1H-indazol-5-yl)nicotinonitrile]
2 |  |  | 418 | > 10 | CN(CCO)C(=O)Nc1cc(-c2ccc3[nH]nc(N)c3c2)ccn1 [Example 44, 3-(4-(3-Amino-1H-indazol-5-yl)pyridin-2-yl)-1-(2-hydroxyethyl)-1-methylurea]
3 |  |  | 15 | 0.47 | CCOC(=O)Nc1cc(-c2ccc3[nH]nc(N)c3c2)ccn1 [Example 35, Ethyl (4-(3-amino-1H-indazol-5-yl)pyridin-2-yl)carbamate]
